Data on one molecule can be found in patent US8598383B2, “Pharmaceutical composition for treating or preventing degenerative and inflammatory diseases” (Neurotech Pharmaceuticals Co., Ltd., priority 2006, dated 2013).

Data set [1] is described as follows: Single-dose toxicity test. It is filed as in vivo. Particulars: mouse, in vivo; single dose. As for the experimental part: FIG. 32 is results of single dose toxicity testing of some 2-hydroxybenzoic acid derivatives according to the present invention.
Single-dose toxicities of the 2-hydroxybenzoic acid derivatives were evaluated.

A further data set relates to TNF-α mRNA in AGS cell. Nature of the data set: Expression of TNF-α mRNA in ethanol-treated AGS cells (RT-PCR). Conditions: 1-100 uM, ethanol 24 hours. It is filed as cell-based, human. As for the experimental part:
FIG. 7 is a picture showing the expression degree of TNF-α mRNA. Cultured AGS cell was treated with 25 mM of alcohol for 24 hours, alone or with compound 2 having indicated concentration. Then, mRNA was extracted and evaluated by RT-PCR method.
As one marker of inflammation, the expression level of TNF-α mRNA was evaluated by RT-PCR method. Samples treated with ethanol for 24 hours were used.

Data set [2] relates to collagen-induced arthritis. Nature of the data set: Collagen-induced arthritis model (arthritic index). Conditions: 25 mg/kg/day intraperitoneal. It is filed as in vivo, mouse. As for the experimental part:
FIG. 15 is results showing efficacy through arthritis animal model induced by collagen. 25 mg/kg of compound 2, 3 or 18, or methotrexate (control, MTX, 1 mg/kg/week) was intraperitoneally injected after administration of collagen.
FIG. 16 is results showing efficacy of compounds 6 and 11 through arthritis animal model induced by collagen. Collagen was intradermally injected two times with 2 week-interval. One week later, compound 6, compound 11 and methotrexate (control) were intraperitoneally injected. Then, the animals were observed everyday for 2-3 weeks, and results was evaluated by arthritis index.
To evaluate the efficacy of the 2-hydroxybenzoic acid derivative, collagen-induced arthritis model (rheumarthritis animal model) was used. Bovine type II collagen was mixed with complete Freund's adjuvant to make an emulsion, and the emulsion was intradermally injected into the origin site of 8˜10 week-old DBA/1LacJ mouse tail. Intradermal boosting was performed by the same method 2 weeks later. 25 mg/kg/day of compounds 2, 3 and 18, 1 mg/kg/week of methotrexate (comparative example) or 10% vehicle (control) were intraperitoneally injected one week after the second intradermal injection of collagen (FIG. 15). Pictures of foot edema of normal rat (sham), collagen-administered rat (collagen) and compound 18-administered rat (compound 18, 25 mg/kg/day injection) were shown in FIG. 14.
In addition, 50 mg/kg/day of compounds 6 and 11, and 5 mg/kg/2 days of methotrexate (comparative example) were intraperitoneally injected. Phosphate buffered saline was injected as control (FIG. 16). For 2˜3 weeks, the degree of arthritis was observed everyday, and the result was evaluated according to the below arthritic index using edema.
4 paws were evaluated as from 0 to 4 point, Total points: 16

Data set [3] deals with TNF-alpha gene expression in BV2 cell line. Nature of the data set: Suppressing effect on gene expression (RT-PCR), TNF-alpha. It is filed as cell-based. Conditions: gene expression vs LPS control, BV2, 24 hours. As for the experimental part:
(§1) Effects of the 2-hydroxybenzoic acid derivatives on iNOS gene expression in BV2 cell line were evaluated. 100 mm dish was inoculated with 1×10^6 cells of BV2 cell line, and treated with both LPS, inflammation-inducing material, and 1˜100 uM of the 2-hydroxybenzoic acid derivative of the present invention, together, in regular concentration interval. After 24 hours of incubation, RNA was extracted. Extracted RNA was used in reverse transcription and polymerase chain reaction, and expression patterns of TNF-alpha, IL-1beta and iNOS were compared.

The test system of the next data set is NSAID-induced gastritis. Nature of the data set: Gastritis caused by NSAID (indomethacine). It is filed as in vivo, rat. Particulars: indomethacine 6 hour and 12 hour models; given 1 hour before NSAID. As for the experimental part: FIG. 10 is results showing protecting effect of compound 2 on gastritis induced by NSAID. 250 g of rat was fasted for 24 hours, and indomethacin was orally administered to cause gastrointestinal bleeding (A and C). Compound 2 was administered 1 hour before administration of NSAID (B and D), and stomach was taken out 6 hours (A and B) or 12 hours (C and D) after gastrointestinal bleeding.
Effect of the 2-hydroxybenzoic acid derivative on NSAID-induced gastritis was evaluated.

For data set [4], the system named is thermal hyperalgesia induced by carrageenan. Nature of the data set: Carrageenan-induced thermal hyperalgesia. It is filed as in vivo, rat. How it is done: FIG. 11 is results showing efficacy of compound 2 through thermal hyperalgesia induced by carrageenan, one of arthritis animal models. 2% carrageenan was intradermally injected into hindpaw of rat to induce thermal hyperalgesia.
Analgesic effect of compound 2, one example of the 2-hydroxybenzoic acid derivative, was evaluated in arthritis model. 2% carrageenan was intradermally injected into left pes of rat, and 3-300 mg/kg of compound 2 was orally administered to evaluate effect of compound 2 on thermal hyperalgesia of arthritis model.

For data set [5], the system named is microglia in lumbar ventral horn. Nature of the data set: Microglia activation in G93A ALS mouse (TOMATO Lectin). It is filed as in vivo. Particulars: 5 mg/kg/day. As for the experimental part:
G93A (Glycine ? Alanine) transgenic mouse having similar pathophysiological characteristics with ALS (amyotrophic lateral sclerosis) human patient was used to evaluate therapeutic effect of drug in ALS, one of main degenerative brain diseases.
Activation degree of microglia (a marker of inflammation in brain disease model) expressed in the lumbar ventral horn of G93A mouse were evaluated with TOMATO Lectin dye. In G93A mouse, microglia was more activated compared to the wild type mouse.

Data set [6] relates to IL-1beta gene expression in BV2 cell line. Nature of the data set: Suppressing effect on gene expression (RT-PCR), IL-1beta. It is filed as cell-based. Particulars: Mus musculus, BV-2, 24 h, gene expression vs LPS control, BV2, 24 hours. As for the experimental part: as §1
The next data set concerns gastric mucous membrane. Nature of the data set: Safety test about induction of gastric mucous membrane damage. It is filed as in vivo. Particulars: oral, up to 1,000 mg/kg, aspirin as control. How it is done: Test samples were orally administered at different doses to evaluate the degree of the gastric mucous membrane damage. Aspirin was used as control.
FIG. 2 is results showing degrees of the gastric mucous membrane damage. Test samples were orally administered at indicated doses. […] Indomethacine, ibuprofen and celecoxib were used as control.
Conventional NSAIDs have side effects causing damages to the gastric mucous membrane. Therefore, it was evaluated whether compound 2 having anti-inflammatory effect causes the gastric damage or not. 30, 100 or 300 mg/kg of aspirin was orally administered as control.

The subject of data set [7] is TNF-α, IL-1β and IL-6 in brain. Nature of the data set: Cytokines in brain of APP/PS1 dementia mice (ELISA). It is filed as in vivo, mouse. Conditions: 25 mg/kg/day in chow for 7 months, vs APP/PS1 fed general chow. How it is done:
FIG. 25 are graphs showing the levels of TNF-α, IL-1β or IL-6 in brain of 10.5 month-old APP/PS1 dementia mouse (Tg+). The levels were evaluated by ELISA method.
After administration of drug for 7 months, the levels of TNF-α, IL-1β and IL-6 were quantified by ELISA (mean±SEM, n=3-5). Significant difference from control (APP/PS1 mouse fed with general chow only), p<0.05 using one-way ANOVA according to Student-Neuman-Keuls' test.
A general note: In an ELISA, binding on a coated surface is turned into a signal by an enzyme label.

A value given as a limit tells only on which side of the number the result lay.

With `O=C(O)c1cc(NCCc2ccc(C(F)(F)F)cc2)ccc1O` [compound 2, 2-hydroxy-5-[2-(4-trifluoromethyl-phenyl)-ethylamino]-benzoic acid], the LD50 (as a rule, the dose at which mortality reaches 50%) in [1] was above 3000 mg/kg. Besides, the “expression of TNF-α mRNA” value in the data set with TNF-α mRNA in AGS cell was “completely suppressed”. In addition, the arthritic index result in data set [2] is given as “apparent reducing effect”. Moreover, the inhibition (in general, the share of the control response that was lost under treatment) at 100 µM in data set [3] (Mus musculus, BV-2, 24 h) stood at 63.2%; in data set [6], 75.1%. In data set [3], the “% Inhibition (in 100 uM) TNF-alpha” value is reported as 63.2%. Moreover, in the data set on NSAID-induced gastritis, the “protecting effect on stomach” value is reported as “excellent protecting effect on stomach”. Further, the “thermal hyperalgesia, comparison with ibuprofen” value in [4] (100 mg treatment) is “equivalent level of decreasing effect with 50 mg/kg of ibuprofen”. Besides, in data set [4] (300 mg/kg oral), the “reduction of thermal hyperalgesia” value was “over 90%”. Further, the thermal hyperalgesia entry in [4] (3-300 mg/kg oral) is “decreased thermal hyperalgesia in a dose-dependent manner”. In addition, the “number and activation degree of microglia” value in data set [5] is “decreased the number and activation degree of microglia”. Further, the results for the “gastric mucous membrane damage” value in the data set on gastric mucous membrane and with gastric mucous membrane (listed as Compound 2) were “did not cause damage to the gastric mucous membrane” and “did not cause the gastric side effect”, respectively. For the same molecule, the “levels of TNF-α, IL-1β and IL-6 in brain” value in data set [7] was “significantly reduced the levels of TNF-α, IL-β and IL-6”.
